Literature values, collected in patent publication US7452858B2, “Treatment of gestational diabetes” (Amylin Pharmaceuticals, Inc., priority 1999, dated 2008).
Where two headings read alike, the source gives them in different places. Where no end group is shown, it is not given here.

Legend:
[1] = mice, peripheral injection
[2] = rats, intracerebroventricular injection
[3] = tested on: cloned GLP-1 receptor; details: transfected cells

Row | Substance | effect on food intake [1] | effect on food intake [2] | action at the cloned GLP-1 receptor (cAMP) [3]
1 | GLP-1 [7-36]NH2 (HAEGTFTSDVSSYLEGQAAKEFIAWLVKGR-NH2) | does not inhibit food intake | inhibits food intake | 
2 | exendin[9-39]: C-terminally truncated exendin peptide, a carboxyamidated molecule, reported antagonist of GLP-1 |  |  | antagonist
